Target: T1, lipoxidase (ECl.13.1.13) (Glycine max, UniProt P08170)
T1 sequence (P08170 1-839): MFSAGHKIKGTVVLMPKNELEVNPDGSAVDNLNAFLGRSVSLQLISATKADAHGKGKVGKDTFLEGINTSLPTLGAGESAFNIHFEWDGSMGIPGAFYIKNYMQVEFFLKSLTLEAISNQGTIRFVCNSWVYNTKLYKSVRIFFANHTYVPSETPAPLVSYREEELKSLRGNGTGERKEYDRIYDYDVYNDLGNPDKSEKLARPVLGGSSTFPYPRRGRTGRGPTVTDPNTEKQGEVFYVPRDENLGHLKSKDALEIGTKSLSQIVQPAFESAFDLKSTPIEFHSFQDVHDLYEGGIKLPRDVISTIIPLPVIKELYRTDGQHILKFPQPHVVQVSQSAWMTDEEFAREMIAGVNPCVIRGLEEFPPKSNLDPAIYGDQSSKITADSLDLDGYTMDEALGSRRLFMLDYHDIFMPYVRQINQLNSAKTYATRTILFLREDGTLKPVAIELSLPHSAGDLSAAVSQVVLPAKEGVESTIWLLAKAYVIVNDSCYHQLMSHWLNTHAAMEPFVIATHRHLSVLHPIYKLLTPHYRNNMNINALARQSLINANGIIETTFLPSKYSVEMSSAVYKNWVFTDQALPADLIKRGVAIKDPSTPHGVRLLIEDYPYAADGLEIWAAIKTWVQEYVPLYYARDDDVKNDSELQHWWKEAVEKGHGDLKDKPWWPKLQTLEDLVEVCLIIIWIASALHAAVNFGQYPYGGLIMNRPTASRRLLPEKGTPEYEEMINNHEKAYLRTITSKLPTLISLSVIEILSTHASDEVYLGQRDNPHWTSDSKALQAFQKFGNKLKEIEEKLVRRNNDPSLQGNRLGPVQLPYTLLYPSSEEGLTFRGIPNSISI
Experiment: Lipoxidase test: inhibition of the oxidation of linoleic acid by lipoxidase
Assay type: biochemical
Conditions: test substrate made with 0.5% by weight solution of material in ethanol; pH 9.0 borate buffer; 234 nm

Row | Substance | LIC (lipoxidase inhibiting capacity, % inhibition)
1 | Tetrahydromuguol | 24%
2 | i-Nonyl formate | 19%
3 | Dimyrcetol | 16%
4 | i-Nonyl acetate | 50%

From patent publication US4304679A, “Detergent product containing deodorant compositions” (priority 1978, dated 1981)
